Assay [1] deals with T1, mu-opioid receptor (Rattus norvegicus, UniProt P33535).
T1 construct: expressed in transfected cells; host or cells: HEK293 cells, transient transfection
The class given is binding.

For assay [2], the target named is T1, mu-opioid receptor. The class given is cell-based.

Like-named read-outs stand apart in the source and are kept apart here.

T1 sequence (P33535 whole entry): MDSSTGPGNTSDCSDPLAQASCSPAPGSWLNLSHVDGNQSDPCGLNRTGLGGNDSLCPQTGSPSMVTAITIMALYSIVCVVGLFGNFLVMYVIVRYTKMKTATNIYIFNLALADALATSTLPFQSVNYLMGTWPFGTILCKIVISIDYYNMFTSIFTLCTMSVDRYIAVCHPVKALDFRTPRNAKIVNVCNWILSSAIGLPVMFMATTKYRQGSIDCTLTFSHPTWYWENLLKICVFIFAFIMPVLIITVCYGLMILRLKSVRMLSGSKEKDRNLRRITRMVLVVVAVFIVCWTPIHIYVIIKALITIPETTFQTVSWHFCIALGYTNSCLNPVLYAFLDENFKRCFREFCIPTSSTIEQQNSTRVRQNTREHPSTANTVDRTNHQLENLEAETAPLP

With `C[C@@H](NC(=O)[C@@H](N)Cc1ccc(O)cc1)C(=O)NCC(=O)N(C)[C@@H](Cc1ccccc1)C(=O)NCCO` [DAMGO, (D-Ala^2, N-MePhe^4, Gly^5-ol)-enkephalin], the “Affinity and number of binding sites, pH dependence” value at mu-opioid receptor [1] was “slightly (nonsignificantly) lower at pH 5.5 compared to pH 7.5”. Besides, the entries for the “^3H-DAMGO Bmax” value on mu-opioid receptor [1] (pH 5.5), on mu-opioid receptor [1] (pH 6.5) and at mu-opioid receptor [1] (pH 7.5) were 14.04 fmol/mg, 15.50 fmol/mg and 23.95 fmol/mg, respectively. Further, the “cAMP (% baseline)” value on mu-opioid receptor [2] (pH 5) turned out to be 43 ± 6 % baseline; at mu-opioid receptor [2] (pH 6.5), 68 ± 9 % baseline; at mu-opioid receptor [2] (pH 7.5), 82 ± 7 % baseline. The “Suppression of FSK/IBMX-stimulated cAMP, pH dependence” value at mu-opioid receptor [2] (pH 7.5) is given as “markedly stronger at pH 5.0 than at pH 7.5”.

Values taken from patent US20140364449A1 (priority 2012, published 2014).
